Measured values reported in article PMC8745263 (International Journal of Molecular Sciences, 2021).

Biological target: T1, APEH partially purified from human blood cells (Homo sapiens, UniProt P13798)
T1 construct: incubated with APEH partially purified from human blood cells; from tissue; host or cells: human red blood cells (erythrocyte hemolysate from donors' blood)
T1 sequence (P13798 1-732): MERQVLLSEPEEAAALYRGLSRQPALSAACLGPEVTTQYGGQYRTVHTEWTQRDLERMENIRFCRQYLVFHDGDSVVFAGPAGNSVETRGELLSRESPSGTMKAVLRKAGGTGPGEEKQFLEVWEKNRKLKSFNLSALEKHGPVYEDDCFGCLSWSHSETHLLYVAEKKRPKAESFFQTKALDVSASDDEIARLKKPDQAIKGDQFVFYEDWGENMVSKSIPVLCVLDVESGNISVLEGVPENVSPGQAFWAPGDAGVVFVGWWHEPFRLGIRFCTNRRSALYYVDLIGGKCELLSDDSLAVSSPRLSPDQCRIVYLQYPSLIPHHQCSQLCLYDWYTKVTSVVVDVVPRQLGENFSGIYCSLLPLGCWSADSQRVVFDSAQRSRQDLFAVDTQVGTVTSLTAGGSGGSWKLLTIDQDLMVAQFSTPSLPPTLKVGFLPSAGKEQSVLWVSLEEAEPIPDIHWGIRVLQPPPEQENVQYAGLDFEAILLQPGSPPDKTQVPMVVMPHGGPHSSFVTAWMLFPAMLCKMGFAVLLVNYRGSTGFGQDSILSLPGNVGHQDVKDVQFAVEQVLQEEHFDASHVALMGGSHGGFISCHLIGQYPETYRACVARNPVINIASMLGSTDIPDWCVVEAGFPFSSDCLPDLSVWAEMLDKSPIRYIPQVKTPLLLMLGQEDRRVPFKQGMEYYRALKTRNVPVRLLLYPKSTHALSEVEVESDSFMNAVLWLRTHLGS
Test: Treatment of peptides with APEH and assessment of proteolysis by LC-MS
Assay type: biochemical
Conditions: APEH 0.7 μg, 37 °C, 48 h; for % Degradation (overall % of peptide degraded upon exposure to APEH): sum of fragment % of Table 2(a), Tris-HCl 25 mM pH 7.5, N.D. = not degraded
Protocol: In order to identify the potential cleavage sites of APEH on the oxidized GDF11[48-64], the peptide was incubated alone or in combination with the enzyme and the corresponding reaction mixtures were analyzed by LC-MS. The same experiments were performed using the non-oxidized analogues as control.
Blood samples were taken from donors using syringes with heparin. In accordance with ethical principles stated in the Declaration of Helsinki, as well as with approved national and international guidelines for human research, a written informed consent was obtained from participants. The erythrocytes were separated from the plasma by centrifugation at 1800× g for 5 min at 4 °C and washed twice with an isotonic solution (10 mM Tris-HCl pH 7.6, […]; 4 °C). Lysis of erythrocytes was carried out by incubation in hypotonic solution (25 mM Tris/HCl, pH 7.5) for 30 min on ice. The hemolysate was obtained by centrifugation of the lysate at 9200× g for 40 min at 4 °C. Then, the ‘soluble fraction’ was loaded onto a DEAE Sepharose Fast Flow column, connected to an AKTA FPLC system (Amersham Biosciences, Amersham, UK), previously equilibrated in 25 mM Tris-HCl (pH 7.5) (buffer A). The bound proteins were eluted using a linear ionic strength gradient (0–100%) of 1 M NaCl in buffer A at a flow rate of 1 mL min^−1. The active fractions were collected, pooled, dialyzed against 25 mM Tris-HCl pH 7.5 and loaded on a Superdex 200 PC 3.2/30 column (Pharmacia Biotech, Stockholm, Sweden) connected to a SMART System (Pharmacia Biotech, Stockholm, Sweden). The bound proteins were eluted with 25 mM Tris-HCl buffer, pH 7.5, containing 50 mM NaCl, at a flow rate of 0.1 mL min^−1. The active fractions were collected, pooled, dialyzed against 25 mM Tris-HCl pH 7.5 and stored in the same buffer supplemented with 5% glycerol. Enzyme purification was monitored using Ac-Met-7-amino-4-methylcoumarin (AMC) as substrate. Active fractions were analyzed by SDS-PAGE (12%) in order to evaluate the enrichment of the protein during the various purification steps. The protein was also characterized by Western Blot analysis. Aliquots of protein samples were subjected to SDS-PAGE (8%), and then electroblotted onto PVDF membranes (ImmobilonTM, Millipore, Milan, Italy). Membranes were next incubated with the specific primary antibody (sc-102311, 1:5000, Santa Cruz Biotechnology, USA) and then with the horseradish peroxidase-conjugated secondary antibody for 1 h at 37 °C (1:5000, Santa Cruz Biotechnology, Dallas, TX, USA). The immune complexes formed were visualized by enhanced chemiluminescence and autoradiography, according to the manufacturer’s protocol (Amersham Biosciences, Amersham, UK). Molecular mass of the native enzyme was established by gel filtration chromatography on a Superdex 200 PC 3.2/30 column (Pharmacia Biotech, Stockholm, Sweden), connected to a SMART system (Pharmacia Biotech, Stockholm, Sweden), and calibrated with BioRad gel filtration standards (BioRad, Milano, Italy; code 151-1901). The enzyme inhibition assay was performed on APEH preparation using the selective and potent inhibitor AA74-1 (SML0358, Sigma-Aldrich, Milano, Italy). Mixtures containing appropriate amount of inhibitor (62 µM) and APEH sample (0.7 μg) were pre-incubated for 30 min at 37 °C; then the substrate Ac-Met-7-amino-4-methylcoumarin (AMC) was added to the assay mixture and the enzymatic activity was followed as previously described. Control samples were prepared by pre-incubating the same amounts of APEH without the inhibitor and then assayed following the same procedure.
In total, 10 nmol/200 μL of each molecule was incubated with APEH partially purified from human blood cells (0.7 μg, 24.000 total units) at 37 °C for 48 h in Tris-HCl 25 mM pH 7.5. […]

[1] = 10 nmol/200 μL peptide, Tris-HCl 25 mM pH 7.5, EIC peak areas, average of three independent experiments
[2] = 10 nmol/200 μL peptide, Tris-HCl 25 mM pH 7.5, EIC peak areas, average of three independent experiments, listed as GDF11[48-64]ox
[3] = 10 nmol/200 μL peptide, Tris-HCl 25 mM pH 7.5, EIC peak areas, average of three independent experiments, listed as GDF11 wt

Substance | % fragment cleaved at L60 (Ac-...HTHL, lacking VQQA), percentage of the initial substrate [1] [%] | % fragment cleaved on carboxy side of H59 (Ac-...HTH, lacking LVQQA), percentage of the initial substrate [1] [%] | % fragment cleaved on carboxy side of Q62 (Ac-...HTHLVQ, lacking QA), percentage of the initial substrate [1] [%] | % intact peptide left after APEH exposure (percentage of the initial substrate) [1] [%] | % fragment cleaved at L60 (Ac-...HTHL, lacking VQQA), percentage of the initial substrate [2] | % fragment cleaved on carboxy side of H59 (Ac-...HTH, lacking LVQQA), percentage of the initial substrate [2] | % fragment cleaved on carboxy side of Q62 (Ac-...HTHLVQ, lacking QA), percentage of the initial substrate [2] | % fragment cleaved on carboxy side of H59 (Ac-...HTH, lacking LVQQA), percentage of the initial substrate [3] [%] | % fragment cleaved on carboxy side of Q62 (Ac-...HTHLVQ, lacking QA), percentage of the initial substrate [3] [%] | cleavage at H59 as % of the total processed peptide (Tris-HCl 25 mM pH 7.5) | cleavage at L60 as % of the total processed peptide (Tris-HCl 25 mM pH 7.5) | cleavage at Q62 as % of the total processed peptide (Tris-HCl 25 mM pH 7.5) | % Degradation (overall % of peptide degraded upon exposure to APEH) (10 nmol/200 μL peptide) [%] | % Degradation (overall % of peptide degraded upon exposure to APEH) (10 nmol/200 μL peptide, listed as GDF11[48-64]ox) | susceptibility to APEH endoprotease cleavage (in words) (Tris-HCl 25 mM pH 7.5)
Ac-EYM(ox)FM(ox)QKYPHTHLVQQA-NH2 [GDF11[48-64] wt ox, GDF11[48-64]wt bearing sulphoxide groups on M50 and M52, by 3% H2O2 treatment] | 8.4 | 25.6 | 16.4 | 49.6 | about 8% | about 26% | about 16% | ~28 | 18 | around 50% | about 17% | around 32% | 50.4 | around 50% | –
Ac-EYMFMQKYPHTHLVQQA-NH2 [GDF11[48-64]wt, peptide reproducing the 48–64 region of GDF11 protein, acetylated and amidated] | – | – | – | – | – | – | – | – | – | – | – | – | – | – | No cleavage
